Marks after values point to notes of the source that are not given here.

The values that follow come from patent US20130203602A1, “SUPPORTED BIOLOGICALLY ACTIVE COMPOUNDS” (Danmarks Tekniske Universitet, priority 2010, published 2013).

The data set is described as follows: Thermal stability determination by thermogravimetric analysis (TGA). The class given is physicochemical. Conditions: for Inflection point / T5% onset temperature: not supported/neat; for Inflection point: TGA 25-800° C., 5° C./min, under air; for temperature at which it starts to decompose: heated neat; for T5% onset temperature: TGA 5° C./min, under nitrogen.

As for `Nc1nc2c(ncn2COCCO)c(=O)[nH]1` [Trimethylhexadecylammonium acyclovir [3]] [Trimethylhexadecylammonium Aciclovir], the Inflection point turned out to be 189 °C.

Consider `Nc1nc2c(ncn2COCCO)c(=O)[nH]1` [Acyclovir, reference compound], for which the “temperature at which it starts to decompose” value is “around 249 °C” and the Inflection point was found to be 249 °C.

Turning to `CC(C)Cc1ccc(C(C)C(=O)O)cc1` (stereo not shown) [Tetrabutylphosphonium Ibuprofenate [7]], the T5% onset temperature is 236* ° C.

As for `CC(C)Cc1ccc(C(C)C(=O)O)cc1` (stereo not shown) [Ibuprofene, reference compound], the “temperature at which it starts to decompose” value was “around 150 °C” and the T5% onset temperature is listed as 155* ° C.

The compound “Itraconazolium Dioctylsulfosuccinate [Itraconazolium Dioctylsulfosuccinate [5]]” gave an Inflection point of 257 °C.

In the case of `CC(C)Cc1ccc(C(C)C(=O)O)cc1.CCN(CC)CC(=O)Nc1c(C)cccc1C` [[8], Lidocainium Ibuprofenate], the T5%onset (neat compound, given with the synthesis example) came out at 177 °C.

Regarding `O=C(O)CNCP(=O)(O)O` [Tetraethylammonium Glyphosate [6], Tetraethylammonium Glyphosate], the Inflection point turned out to be 150 °C.

With “Tributylmethylammonium Acyclovir [Tributylmethylammonium Acyclovir [2]]”, the Inflection point was found to be 203 °C.
